# Experimental data as given in patent US4448788A, “11-Deoxoglycyrrhetinic acid hydrogen maleate, process for its production, and its use as a medicine” (priority 1981, dated 1984).
# Counter-ions that a name gives are not always drawn. Like-named read-outs stand apart in the source and are kept apart here.
# Legend:
# [1] = test system: aldosterone (DCA)-like activity; details: cited from earlier work
# [2] = test system: Acetic acid-induced ulcer; assay: Acetic acid-induced ulcer; format: in vivo, male SD-strain rats; details: for Percent inhibition / Ulcer index (mean ± standard deviation): once a day for 10 days; for significance of inhibition: rat, in vivo
# Description: In the following test examples, male SD-strain rats (body weight 200 to 250 g) were used as experimental animals, and a sodium salt of the compound of formula (I) dissolved in distilled water was used as the compound of this invention. Acetic acid-induced ulcer: Rats, 5 or 10 per group, were used. After they were anesthetized with pentobarbital sodium, the abdomen was incised, and 0.05 ml of 10% acetic acid was injected into the mucous membrane from the serous layer at the boundary portion in the anterior wall between the body of the stomach and the pylorus part. The abdomen was then sutured. Each of the test drugs shown in Table 2 was intraperitoneally or orally administered once a day for 10 consecutive days beginning with the second day after the above operation. On the 15th day after the operation, the stomach was excised and 12 ml of 1% formalin was injected into it. Then, the stomach was dipped in 1% formalin for 10 minutes, and cut open along the greater curvature. The area of an ulcer generated was measured, and the ulcer index was calculated on the basis of the following standard. |0 0 |1-8 1 | 9-24 2 |25-63 3 | 64-120 4 |121-168 5 |>168 6 The tissue respiration activator used was a calf's blood extract preparation administered at a rate of 0.5 ml per 100 g of body weight (this applies to all tissue respiration activators appearing hereinafter).
# [3] = test system: Indomethacin-induced ulcer; assay: Indomethacin-induced ulcer; format: in vivo, male SD-strain rats
# Description: (§1) In the following test examples, male SD-strain rats (body weight 200 to 250 g) were used as experimental animals, and a sodium salt of the compound of formula (I) dissolved in distilled water was used as the compound of this invention.
# (§2) The tissue respiration activator used was a calf's blood extract preparation administered at a rate of 0.5 ml per 100 g of body weight (this applies to all tissue respiration activators appearing hereinafter).
# Indomethacin-induced ulcer:
# Rats, 5 per group, were used. They were caused to fast for 24 hours while giving them only water. Then, indomethacin was subcutaneously injected to the rats in a dose of 30 mg/kg. Eight hours later, the rats were killed, and the stomach was excised and treated in the same way as in Test Example 3. The length of the erosion generated was measured. Each of the test drugs shown in Table 4 was administered to the rats intraperitoneally or orally 10 minutes before the administration of iodomethacin.
# Stress ulcer = Stress ulcer (water immersion); format: in vivo, male SD-strain rats
# Description: as §1, §2
# Rats, 5 per group, were used. They were put in wire gauze stress cages (made by Natsume Seisakusho) in an upstanding position. The cages were put in a water bath kept constantly at 23° C., and the rats were immersed to a level of the sternal projection. Each of the drugs shown in Table 3 was administered to the rats intraperitoneally or orally 15 minutes before water immersion. Seven hours after the administration, the rats were knocked out to death. The stomach was excised, and the length of a stress ulcer (erosion) was measured.
# [4] = test system: Shay's ulcer (ulcer induced by ligation of the pylorus); assay: Pylorus ligating method (Shay's ulcer); format: in vivo, male SD-strain rats; parameters: Ulcer index (mean ± standard deviation): scale not given here; details: for minimal effective dose: Rattus norvegicus, read-out: positively effective dose
# Description: as §1
# Pylorus ligating method (Shay's ulcer):
# Rats, 10 per group, were used, and allowed to fast for 48 hours in separate cages while giving them only water. Pentobarbital sodium was injected intraperitoneally to the rats in a dose of 5 mg per rat. Under anesthesia, the abdomen of each rat was incised, and the portion leading from the pylorus to the duodenum was ligated. Then, the abdomen was sutered. The rats were then left for 19 hours without giving them food and water. Then, under ether anesthesia, the rats were killed by removing the spinal cord. The stomach was excised, and the amount of the gastric juice was measured. The stomach was then cut open along its greater curvature, and placed on a cork plate. The area of an ulcer generated at the anterior stomach was measured by means of an Olympus stereoscope (magnification 10×), and the ulcer index was calculated on the basis of the following criteria.
# The test compound of the invention was injected immediately after the ligation, or orally administered 30 minutes before the ligation. To a control group, physiological saline was given at a rate of 1 ml per 100 g of body weight.
# [5] = test system: Delayed-type cellular immunity; assay: Delayed-type cellular immunity activating action (sheep red blood cells, foot pad thickness); format: in vivo, mice; details: day 8
# Description: Mice, 10 per group, were used. Sheep red blood cells (1.0×10^7) were subcutaneously inoculated in the right foot pad of each mouse. The day of inoculation was taken as day 0, and on the same day, the sodium salt of the compound of formula (I) was administered to the mice intraperitoneally or orally. On day 7, sheep red blood cells (1.0×10^7) were subcutaneously inoculated in the left foot pad of each mouse, and on day 8, the thickness of each foot pad was measured.
# [6] = Toxicity (LD50, method of Reed and Muench); details: rat, in vivo, rats observed for 7 days
# Description: The LD50 value was calculated by the method of Reed and Muench.
# [7] = oral, 50 mg/kg, P < 0.05 (cetraxate), P < 0.0001 (compound of the invention)
# [8] = oral, 300 mg/kg, P < 0.05 (cetraxate), P < 0.001 (compound of the invention)
# [9] = oral, 300 mg/kg, P < 0.01 (cetraxate), P < 0.001 (compound of the invention)
smiles,measurement,setting,value
CC1(C)[C@@H](O)CC[C@]2(C)[C@H]3CC=C4[C@@H]5C[C@@](C)(C(=O)O)CC[C@]5(C)CC[C@@]4(C)[C@]3(C)CC[C@@H]12 [11-deoxoglycyrrhetinic acid],DCA activity,"[1]; Baran et al., J. Med. Chem. 1974",does not substantially show the DCA activity
"CC1(C)[C@@H](OC(=O)CCC(=O)O)CC[C@]2(C)[C@H]3C(=O)C=C4[C@@H]5C[C@@](C)(C(=O)O)CC[C@]5(C)CC[C@@]4(C)[C@]3(C)CC[C@@H]12 [Carbenoxolone sodium, glycyrrhetinic acid hydrogen succinate sodium salt, reference compound]",Percent inhibition,"[2]; oral, 300 mg/kg",12.6%
"NC[C@H]1CC[C@H](C(=O)Oc2ccc(CCC(=O)O)cc2)CC1 [Cetraxate hydrochloride, cetraxate hydrochloride, reference compound]",Percent inhibition,"[2]; intraperitoneal, 20 mg/kg",49.5%
same,Ulcer index (mean ± standard deviation),"[2]; intraperitoneal, 20 mg/kg",1.60 ± 0.245
same,Ulcer index (mean ± standard deviation),"[2]; oral, 50 mg/kg",1.90 ± 0.568
same,Percent inhibition,[2]; [7],29.6%
same,significance of inhibition,[2],significant inhibitions at P<0.001
same,Length of the erosion (mean ± standard deviation),"[3]; intraperitoneal, 200 mg/kg",38.94 ± 8.22 mm
same,Percent inhibition,"[3]; intraperitoneal, 200 mg/kg",44.3%
same,Length of the erosion (mean ± standard deviation),"[3]; oral, 300 mg/kg",31.58 ± 7.59 mm
same,Percent inhibition,[3]; [8],43.7%
same,Length of the erosion (mean ± standard deviation),"Stress ulcer; intraperitoneal, 200 mg/kg",56.08 ± 12.89 mm
same,Percent inhibition,"Stress ulcer; intraperitoneal, 200 mg/kg",13.5%
same,Percent inhibition,"Stress ulcer; oral, 300 mg/kg",36.6%
same,Length of the erosion (mean ± standard deviation),Stress ulcer; [9],48.6 ± 3.90 mm
"CC1(C)[C@@H](OC(=O)/C=C\C(=O)O)CC[C@]2(C)[C@H]3CC=C4[C@@H]5C[C@@](C)(C(=O)O)CC[C@]5(C)CC[C@@]4(C)[C@]3(C)CC[C@@H]12 [Compound of the invention, sodium salt of 11-deoxoglycyrrhetinic acid hydrogen maleate]",minimal effective dose,"[4]; ip, intraperitoneal",~10 mg/kg
same,minimal effective dose,[4]; oral,~300 mg/kg
same,Percent inhibition,"[4]; intraperitoneal, 5 mg/kg",17.1%
same,Ulcer index (mean ± standard deviation),"[4]; intraperitoneal, 5 mg/kg",3.4 ± 0.84
same,Percent inhibition,"[4]; intraperitoneal, 10 mg/kg",65.9%
same,Ulcer index (mean ± standard deviation),"[4]; intraperitoneal, 10 mg/kg, P < 0.01",1.4 ± 0.51
same,Percent inhibition,"[4]; intraperitoneal, 20 mg/kg",70.7%
same,Ulcer index (mean ± standard deviation),"[4]; intraperitoneal, 20 mg/kg, P < 0.01",1.2 ± 0.20
same,Percent inhibition,"[4]; intraperitoneal, 50 mg/kg",92.7%
same,Ulcer index (mean ± standard deviation),"[4]; intraperitoneal, 50 mg/kg, P < 0.001",0.3 ± 0.21
same,Percent inhibition,"[4]; intravenous, 40 mg/kg",90.4%
same,Ulcer index (mean ± standard deviation),"[4]; intravenous, 40 mg/kg, P < 0.001",0.4 ± 0.19
same,Percent inhibition,"[4]; oral, 100 mg/kg",36.0%
same,Ulcer index (mean ± standard deviation),"[4]; oral, 100 mg/kg",3.2 ± 0.97
same,Percent inhibition,"[4]; oral, 300 mg/kg",80.0%
same,Ulcer index (mean ± standard deviation),"[4]; oral, 300 mg/kg, P < 0.01",1.0 ± 1.01
same,Percent inhibition,"[4]; oral, 500 mg/kg",84.0%
same,Ulcer index (mean ± standard deviation),"[4]; oral, 500 mg/kg, P < 0.001",0.8 ± 0.49
same,effect against ulcer induced by ligation of the pylorus,"[4]; rat, in vivo",effective against ulcer induced by ligation of the pylorus
same,Percent inhibition,"[4]; subcutaneous, 70 mg/kg",84.6%
same,Ulcer index (mean ± standard deviation),"[4]; subcutaneous, 70 mg/kg, P < 0.001",0.8 ± 0.90
same,Ratio to the control group,"[5]; 5 mm/kg (so in the source), intraperitoneal",1.18
same,Ratio to the control group,"[5]; 15 mm/kg (so in the source), intraperitoneal",1.49
same,Ratio to the control group,"[5]; 100 mm/kg (so in the source), oral",1.40
same,Percent inhibition,"[2]; intraperitoneal, 2 mg/kg",54.8%
same,Ulcer index (mean ± standard deviation),"[2]; intraperitoneal, 2 mg/kg, P < 0.001",1.40 ± 0.247
same,Ulcer index (mean ± standard deviation),"[2]; oral, 10 mg/kg",1.60 ± 0.699
same,Percent inhibition,"[2]; oral, 10 mg/kg, P < 0.001",40.7%
same,Ulcer index (mean ± standard deviation),"[2]; oral, 30 mg/kg",1.40 ± 0.699
same,Percent inhibition,"[2]; oral, 30 mg/kg, P < 0.001",48.1%
same,Ulcer index (mean ± standard deviation),"[2]; oral, 50 mg/kg",1.00 ± 0.817
same,Percent inhibition,[2]; [7],63.0%
same,significance of inhibition,[2],significant inhibitions at P<0.001
same,rank of percent inhibition,[2]; versus cetraxate hydrochloride and tissue respiration activator,highest
same,Length of the erosion (mean ± standard deviation),"[3]; intraperitoneal, 20 mg/kg",17.69 ± 8.08 mm
same,Percent inhibition,"[3]; intraperitoneal, 20 mg/kg",74.7%
same,Length of the erosion (mean ± standard deviation),"[3]; oral, 100 mg/kg",9.37 ± 3.22 mm
same,Percent inhibition,"[3]; oral, 100 mg/kg, P < 0.001",83.3%
same,Length of the erosion (mean ± standard deviation),"[3]; oral, 300 mg/kg",7.22 ± 3.06 mm
same,Percent inhibition,[3]; [8],87.1%
same,Length of the erosion (mean ± standard deviation),"[3]; oral, 500 mg/kg",5.63 ± 3.92 mm
same,Percent inhibition,"[3]; oral, 500 mg/kg, P < 0.001",90.0%
same,LD50 at 168 h,"[6]; ip, intraperitoneal",67.8 mg/kg
same,LD50 at 168 h,"[6]; sc, subcutaneous",98.3 mg/kg
same,LD50 at 168 h,[6]; intravenous,54.2 mg/kg
same,LD50 at 168 h,[6]; oral,> 6000 mg/kg
same,Length of the erosion (mean ± standard deviation),"Stress ulcer; intraperitoneal, 20 mg/kg",19.25 ± 0.95 mm
same,Percent inhibition,"Stress ulcer; intraperitoneal, 20 mg/kg",70.3%
same,Percent inhibition,"Stress ulcer; oral, 100 mg/kg",87.5%
same,Length of the erosion (mean ± standard deviation),"Stress ulcer; oral, 100 mg/kg, P < 0.001",9.6 ± 4.80 mm
same,Percent inhibition,"Stress ulcer; oral, 300 mg/kg",100.0%
same,Length of the erosion (mean ± standard deviation),Stress ulcer; [9],0.0 ± 0.00 mm
same,Percent inhibition,"Stress ulcer; oral, 500 mg/kg",100.0%
same,Length of the erosion (mean ± standard deviation),"Stress ulcer; oral, 500 mg/kg, P < 0.001",0.0 ± 0.00 mm
CC1(C)[C@@H](O)CC[C@]2(C)[C@H]3C(=O)C=C4[C@@H]5C[C@@](C)(C(=O)O)CC[C@]5(C)CC[C@@]4(C)[C@]3(C)CC[C@@H]12 [glycyrrhetinic acid],"aldosterone (DCA)-like activity, sodium retention and potassium excretion",[1],have an aldosterone (DCA)-like activity and promote sodium retention and potassium excretion
